The values below come from ChEMBL document CHEMBL1124630, “Fluoronaphthyridines and quinolones as antibacterial agents. 1. Synthesis and structure-activity relationships of new 1-substituted derivatives” (J Med Chem, 1989).

≈ marks a conversion by molar mass, not a printed value.

Series [1] concerns Escherichia coli. The series can be described thus: In vitro antibacterial activity against Escherichia coli (A 15119). The format is functional.
A further series deals with Enterobacter cloacae. The series can be described thus: In vitro antibacterial activity against Enterobacter cloacae (A 9656). It is filed as functional.
Series [2] relates to Klebsiella pneumoniae. The series can be described thus: In vitro antibacterial activity against Klebsiella pneumoniae (A 9664). The format is functional.
The test system of another series is Morganella morganii. In words: In vitro antibacterial activity against Morganella morganii (A 15153). It is filed as functional.
Series [3] has as its system Pseudomonas aeruginosa. The series can be described thus: In vitro antibacterial activity against Pseudomonas aeruginosa (A 9843). It is filed as functional.
For series [4], the system named is Staphylococcus aureus. In words: In vitro antibacterial activity against Staphylococcus aureus Smith (A9537). The format is functional.
The next series deals with Canis familiaris. The series can be described thus: Area under the concentration/ time in plasma after oral administration in dog (25 mg/kg). The format is ADME, organism-based, Canis lupus familiaris. Conditions: in vivo.
Series [5] is described as follows: Maximum concentration in plasma after oral administration in dog (25 mg/kg). The format is ADME, organism-based, Canis lupus familiaris. The arrangement: dose 25 mg/kg, route oral.
Series [6] is described as follows: Urinary recovery after 24 hr in plasma after oral administration in dog (25 mg/kg). It is filed as ADME, organism-based, Canis lupus familiaris. Conditions: urine, read-out: UR.
For series [7], the system named is Escherichia coli. In words: In vivo efficacy in systemic infection due to Escherichia coli (A 15119) in mice. It is filed as functional. Conditions: read-out: PD50.
Series [8] relates to Klebsiella pneumoniae. In words: In vivo efficacy in systemic infection due to Klebsiella pneumoniae (A 9664) in mice. It is filed as functional. Conditions: read-out: PD50.
Series [9] relates to Pseudomonas aeruginosa. The series can be described thus: In vivo efficacy in systemic infection due to Pseudomonas aeruginosa (A 9843) in mice. It is filed as functional. Conditions: read-out: PD50.
Series [10] has as its system Staphylococcus aureus. The series can be described thus: In vivo efficacy in systemic infection due to Staphylococcus aureus Smith (A 9537) in mice. It is filed as functional. Conditions: read-out: PD50.
Series [11] is described as follows: Lethal dose of compound in OF1-strain female swiss mice after oral administration. It is filed as toxicity, organism-based. Conditions: mouse, in vivo.
Setting [12] is: Klebsiella pneumoniae, read-out: MIC.
[13] abbreviates: Pseudomonas aeruginosa, read-out: MIC.
Where [14] appears, read: Escherichia coli, read-out: MIC.
Where [15] appears, read: Enterobacter cloacae, read-out: MIC.
The mark [16] stands for this setting: Morganella morganii, read-out: MIC.
Setting [17] is: Staphylococcus aureus, read-out: MIC.

For the compound `CC1CC1n1cc(C(=O)O)c(=O)c2cc(F)c(N3CCNCC3)cc21` (stereo in doubt; 13), the MIC with Escherichia coli [1] came to 0.13 µg/mL (≈ 0.376 µM); in the series with Enterobacter cloacae, 0.5 µg/mL (≈ 1.45 µM); with Klebsiella pneumoniae [2] (setting [12]), 1 µg/mL (≈ 2.9 µM); in the series on Morganella morganii it was 0.25 µg/mL (≈ 0.724 µM); with Pseudomonas aeruginosa [3] (setting [13]), 1 µg/mL (≈ 2.9 µM); against Staphylococcus aureus [4], 0.13 µg/mL (≈ 0.376 µM).

In the case of `O=C(O)c1cn(C23CC4CC(CC(C4)C2)C3)c2cc(N3CCNCC3)c(F)cc2c1=O`, the MIC was 2 µg/mL (≈ 4.7 µM) in the series with Escherichia coli [1] (setting [14]); 4 µg/mL (≈ 9.4 µM) with Enterobacter cloacae (setting [15]); 8 µg/mL (≈ 18.8 µM) with Klebsiella pneumoniae [2] (setting [12]); 32 µg/mL (≈ 75.2 µM) in the series on Morganella morganii (setting [16]); 63 µg/mL (≈ 148 µM) in the series with Pseudomonas aeruginosa [3] (setting [13]); 8 µg/mL (≈ 18.8 µM) in the series on Staphylococcus aureus [4] (setting [17]).

In the series on Canis familiaris, `O=C(O)c1cn(C2CC2)c2cc(N3CCNCC3)c(F)cc2c1=O` [CIPROFLOXACIN] returned an AUC of 20 µg/mL. In series [5], the concentration peaked (Cmax) at 3000 ng/mL. Besides, in series [6], the dose excreted at 24 h is 17%. Also, the ED50 in the series with Escherichia coli [7] worked out at 0.7 mg/kg; with Klebsiella pneumoniae [8] it was 1.5 mg/kg; in the series on Pseudomonas aeruginosa [9] it was 5 mg/kg; in the series on Staphylococcus aureus [10], 4 mg/kg. Also, the MIC in the series on Klebsiella pneumoniae [2] (setting [12]) was determined as 0.03 µg/mL (≈ 0.0905 µM); with Morganella morganii (setting [16]) it was 0.015 µg/mL (≈ 0.0453 µM); in the series with Pseudomonas aeruginosa [3] (setting [13]), 0.13 µg/mL (≈ 0.392 µM); in the series with Staphylococcus aureus [4] (setting [17]), 0.13 µg/mL (≈ 0.392 µM).

For the compound `O=C(O)c1cn(C2(c3ccccc3)CC2)c2cc(N3CCNCC3)c(F)cc2c1=O`, the minimal inhibitory concentration (MIC) came out at 0.13 µg/mL (≈ 0.319 µM) in the series with Escherichia coli [1] (setting [14]); 0.25 µg/mL (≈ 0.614 µM) in the series on Enterobacter cloacae (setting [15]); 0.25 µg/mL (≈ 0.614 µM) with Klebsiella pneumoniae [2] (setting [12]); 0.25 µg/mL (≈ 0.614 µM) in the series with Morganella morganii (setting [16]); 4 µg/mL (≈ 9.82 µM) with Pseudomonas aeruginosa [3] (setting [13]); 0.13 µg/mL (≈ 0.319 µM) in the series with Staphylococcus aureus [4] (setting [17]).

Turning to `CC1CCC1n1cc(C(=O)O)c(=O)c2cc(F)c(N3CCNCC3)cc21` (stereo not drawn), the MIC worked out at 2 µg/mL (≈ 5.56 µM) in the series with Escherichia coli [1] (setting [14]); 32 µg/mL (≈ 89 µM) with Enterobacter cloacae (setting [15]); 4 µg/mL (≈ 11.1 µM) with Klebsiella pneumoniae [2] (setting [12]); 16 µg/mL (≈ 44.5 µM) in the series with Morganella morganii (setting [16]); 32 µg/mL (≈ 89 µM) in the series on Pseudomonas aeruginosa [3] (setting [13]); 4 µg/mL (≈ 11.1 µM) with Staphylococcus aureus [4] (setting [17]).

As for `CCn1cc(C(=O)O)c(=O)c2cc(F)c(N3CCNCC3)cc21` [NORFLOXACIN], the minimum inhibitory concentration (MIC) in the series with Escherichia coli [1] (setting [14]) was found to be 0.13 µg/mL (≈ 0.407 µM); with Enterobacter cloacae (setting [15]), 0.06 µg/mL (≈ 0.188 µM); in the series on Klebsiella pneumoniae [2] (setting [12]), 0.03 µg/mL (≈ 0.0939 µM); in the series with Morganella morganii (setting [16]) it was 0.015 µg/mL (≈ 0.047 µM); in the series on Pseudomonas aeruginosa [3] (setting [13]) it was 0.5 µg/mL (≈ 1.57 µM); in the series on Staphylococcus aureus [4] (setting [17]), 0.25 µg/mL (≈ 0.783 µM). The ED50 in the series on Escherichia coli [7] was found to be 3 mg/kg; in the series with Klebsiella pneumoniae [8], 8 mg/kg; in the series with Pseudomonas aeruginosa [9], 16 mg/kg; in the series on Staphylococcus aureus [10], 10 mg/kg. In series [11], this compound displayed an LD50 of over 2500 mg/kg.

`CC(c1ccccc1)n1cc(C(=O)O)c(=O)c2cc(F)c(N3CCNCC3)cc21` (stereo not drawn): the MIC was 2 µg/mL (≈ 5.06 µM) with Escherichia coli [1] (setting [14]); 4 µg/mL (≈ 10.1 µM) with Enterobacter cloacae (setting [15]); 4 µg/mL (≈ 10.1 µM) in the series with Klebsiella pneumoniae [2] (setting [12]); 16 µg/mL (≈ 40.5 µM) with Morganella morganii (setting [16]); 32 µg/mL (≈ 80.9 µM) with Pseudomonas aeruginosa [3] (setting [13]); 4 µg/mL (≈ 10.1 µM) in the series with Staphylococcus aureus [4] (setting [17]).

In the case of `O=C(O)c1cn(C2CC2)c2nc(N3CCNCC3)c(F)cc2c1=O`, the minimal inhibitory concentration (MIC) was determined as 0.06 µg/mL (≈ 0.181 µM) in the series with Escherichia coli [1] (setting [14]); 0.06 µg/mL (≈ 0.181 µM) in the series on Enterobacter cloacae (setting [15]); 0.06 µg/mL (≈ 0.181 µM) with Klebsiella pneumoniae [2] (setting [12]); 0.06 µg/mL (≈ 0.181 µM) in the series on Morganella morganii (setting [16]); 0.06 µg/mL (≈ 0.181 µM) with Pseudomonas aeruginosa [3] (setting [13]); 0.25 µg/mL (≈ 0.752 µM) with Staphylococcus aureus [4] (setting [17]). For the same compound, the ED50 with Escherichia coli [7] worked out at 0.5 mg/kg; in the series with Klebsiella pneumoniae [8], 2.2 mg/kg; in the series on Pseudomonas aeruginosa [9], 3.6 mg/kg; with Staphylococcus aureus [10], 6.7 mg/kg.

For `C=C(C)n1cc(C(=O)O)c(=O)c2cc(F)c(N3CCNCC3)nc21`, the MIC in the series with Escherichia coli [1] (setting [14]) was determined as 0.13 µg/mL (≈ 0.391 µM); with Enterobacter cloacae (setting [15]) it was 0.25 µg/mL (≈ 0.752 µM); with Klebsiella pneumoniae [2] (setting [12]), 0.13 µg/mL (≈ 0.391 µM); in the series with Morganella morganii (setting [16]), 0.5 µg/mL (≈ 1.5 µM); in the series with Pseudomonas aeruginosa [3] (setting [13]), 2 µg/mL (≈ 6.02 µM); in the series on Staphylococcus aureus [4] (setting [17]) it was 0.5 µg/mL (≈ 1.5 µM). In addition, the ED50 was determined as 20 mg/kg in the series on Pseudomonas aeruginosa [9] and 15 mg/kg in the series with Staphylococcus aureus [10].

Regarding `CC1CC1n1cc(C(=O)O)c(=O)c2cc(F)c(N3CCNCC3)cc21` (stereo in doubt; 12), the MIC stood at 0.06 µg/mL (≈ 0.174 µM) in the series on Escherichia coli [1]; 0.13 µg/mL (≈ 0.376 µM) with Enterobacter cloacae; 2 µg/mL (≈ 5.79 µM) with Klebsiella pneumoniae [2]; 1 µg/mL (≈ 2.9 µM) in the series with Morganella morganii; 2 µg/mL (≈ 5.79 µM) against Pseudomonas aeruginosa [3]; 1 µg/mL (≈ 2.9 µM) against Staphylococcus aureus [4].

For `O=C(O)c1cn(-c2ccc(F)cc2)c2nc(N3CCNCC3)c(F)cc2c1=O`, the MIC with Escherichia coli [1] (setting [14]) stood at 0.05 µg/mL (≈ 0.129 µM); in the series on Klebsiella pneumoniae [2] (setting [12]), 0.1 µg/mL (≈ 0.259 µM); with Pseudomonas aeruginosa [3] (setting [13]), 0.39 µg/mL (≈ 1.01 µM); in the series on Staphylococcus aureus [4] (setting [17]), 0.39 µg/mL (≈ 1.01 µM).

For the compound `CC1(n2cc(C(=O)O)c(=O)c3cc(F)c(N4CCNCC4)cc32)CCC1`, the MIC in the series with Escherichia coli [1] (setting [14]) is 0.25 µg/mL (≈ 0.696 µM); with Enterobacter cloacae (setting [15]), 1 µg/mL (≈ 2.78 µM); in the series with Klebsiella pneumoniae [2] (setting [12]), 2 µg/mL (≈ 5.56 µM); in the series on Morganella morganii (setting [16]), 0.5 µg/mL (≈ 1.39 µM); in the series with Pseudomonas aeruginosa [3] (setting [13]), 8 µg/mL (≈ 22.3 µM); with Staphylococcus aureus [4] (setting [17]), 0.5 µg/mL (≈ 1.39 µM).

In the case of `CC(C)(C)n1cc(C(=O)O)c(=O)c2cc(F)c(N3CCNCC3)c(F)c21`, the minimum inhibitory concentration (MIC) with Escherichia coli [1] (setting [14]) amounted to 0.06 µg/mL (≈ 0.164 µM); in the series on Enterobacter cloacae (setting [15]) it was 0.25 µg/mL (≈ 0.684 µM); with Klebsiella pneumoniae [2] (setting [12]), 0.25 µg/mL (≈ 0.684 µM); with Morganella morganii (setting [16]), 0.5 µg/mL (≈ 1.37 µM); with Pseudomonas aeruginosa [3] (setting [13]), 4 µg/mL (≈ 10.9 µM); with Staphylococcus aureus [4] (setting [17]), 0.25 µg/mL (≈ 0.684 µM).

For the compound `CCC(C)(C)n1cc(C(=O)O)c(=O)c2cc(F)c(N3CCNCC3)cc21`, the MIC worked out at 0.5 µg/mL (≈ 1.38 µM) in the series with Escherichia coli [1] (setting [14]); 1 µg/mL (≈ 2.77 µM) in the series on Enterobacter cloacae (setting [15]); 1 µg/mL (≈ 2.77 µM) with Klebsiella pneumoniae [2] (setting [12]); 4 µg/mL (≈ 11.1 µM) with Morganella morganii (setting [16]); 4 µg/mL (≈ 11.1 µM) in the series with Pseudomonas aeruginosa [3] (setting [13]); 0.25 µg/mL (≈ 0.692 µM) in the series with Staphylococcus aureus [4] (setting [17]).

A word on the MIC: it is the smallest concentration in the dilution series that meets the test's criterion for growth inhibition. One may read the Cmax as the highest concentration seen after dosing. Usually LD50 stands for the dose expected to kill half of the subjects tested. Read a high LD50 as lower toxicity.
